Here are results for 5 compounds from paper PMC11375011, “Inducible auto-phosphorylation regulates a widespread family of nucleotidyltransferase toxins” (Nature Communications, 2024).

For test [1], the target named is T1, MenA1:MenT1 (MenT1 in the presence of MenA1) (Mycobacterium tuberculosis, UniProt L7N686).
T1 construct: gene Rv0078A

Test [2] concerns the target T1, MenA1:MenT1 (MenT1 in the presence of MenA1). This is another data set of the same source.

Consider `Nc1ccn([C@@H]2O[C@H](COP(=O)(O)OP(=O)(O)OP(=O)(O)O)[C@@H](O)[C@H]2O)c(=O)n1` [CTP], for which, in test [1], the ΔTm result is “no significant differences between mean ΔTm values were observed when incubated with any”.

In the case of `O=c1ccn([C@@H]2O[C@H](COP(=O)(O)OP(=O)(O)OP(=O)(O)O)[C@@H](O)[C@H]2O)c(=O)[nH]1` [UTP], in test [1], the ΔTm result is recorded as “no significant differences between mean ΔTm values were observed when incubated with any”. For `Nc1ncnc2c1ncn2[C@@H]1O[C@H](COP(=O)(O)OP(=O)(O)O)[C@@H](O)[C@H]1O` [ADP], the “phosphorylation assay of MenT1” value in test [2] was “Co-incubation of MenT1, MenA1 and MgCl2 with ADP, but not AMP or AMP-PNP, supported phosphorylation”. With `Nc1nc2c(ncn2[C@@H]2O[C@H](COP(=O)(O)OP(=O)(O)OP(=O)(O)O)[C@@H](O)[C@H]2O)c(=O)[nH]1` [GTP], the ΔTm result in test [1] was “no significant differences between mean ΔTm values were observed when incubated with any”. For the compound `Nc1ncnc2c1ncn2[C@@H]1O[C@H](COP(=O)(O)OP(=O)(O)OP(=O)(O)O)[C@@H](O)[C@H]1O` [ATP], in test [1], the ΔTm entry is “no significant differences between mean ΔTm values were observed when incubated with any”.
